# Test system: BMP7 induced pSMAD1/5/8 in BMPR2−/− and TGF-β1 induced pSMAD2
# Experiment: Western blot, BMP7 vs TGF-beta induced pSMAD in PASMCs
# Format: cell-based, mice
# Conditions: versus LDN-193189; BMPR2-deficient and wild type PASMCs; FIGS. 5b and 5c
# Experimental: C2C12 […] cells stably transfected with BMP responsive element from the Idl promoter fused to luciferase reporter gene (BRE-Luc) and human embryonic kidney 293T cells stably transfected with the TGF-β responsive element from the PAI-1 promoter fused to luciferase reporter gene (CAGA-Luc) were cultured in DMEM (Life Technologies) supplemented with 10% FBS, L-glutamine, and pen/strep at 37° C. and 10% CO2. HepG2 human hepatoma cells (ATCC) were cultured in EMEM (Life Technologies) supplemented with 10% FBS, L-glutamine, and pen/strep at 37° C. and 10% CO2. C2C12 […] (ATCC) were cultured in DMEM (Life Technologies) supplemented with 10% FBS, L-glutamine, and pen/strep at 37° C. and 10% CO2. […]
# Both WT and BMPR2^del/del PASMCs were seeded in 12-well plates (Falcon®; BD Biosciences) at 75% confluency (˜375,000 cells in 480 μL per well). […] The phosphorylation state of downstream effector proteins (pSMAD1/5/8 and pSMAD2 for BMP and TGF-β respectively) was measured by western blotting performed 30 minutes after ligand stimulation. Western blots were analyzed using ImageJ with positive controls at 100% ligand induced phospho-SMAD and negative controls being subtracted as background. […]
compound,measurement,value
c1cc(-c2cnn3cc(-c4ccc(N5CCNCC5)cc4)cnc23)c2cccnc2c1 [LDN-212854],"selectivity, BMP7 induced pSMAD1/5/8 versus TGF-β1 induced pSMAD2",improved selectivity
